The subject of assay [1] is HCT-116. Kind of assay: Inhibition of the growth of colon cancer(HCT116) cell line at 0.01 uM. Type of assay: functional. The note with it: Homo sapiens.
For assay [2], the target named is T1, Bifunctional dihydrofolate reductase-thymidylate synthase (Toxoplasma gondii, UniProt Q07422).
T1 sequence (Q07422 whole entry): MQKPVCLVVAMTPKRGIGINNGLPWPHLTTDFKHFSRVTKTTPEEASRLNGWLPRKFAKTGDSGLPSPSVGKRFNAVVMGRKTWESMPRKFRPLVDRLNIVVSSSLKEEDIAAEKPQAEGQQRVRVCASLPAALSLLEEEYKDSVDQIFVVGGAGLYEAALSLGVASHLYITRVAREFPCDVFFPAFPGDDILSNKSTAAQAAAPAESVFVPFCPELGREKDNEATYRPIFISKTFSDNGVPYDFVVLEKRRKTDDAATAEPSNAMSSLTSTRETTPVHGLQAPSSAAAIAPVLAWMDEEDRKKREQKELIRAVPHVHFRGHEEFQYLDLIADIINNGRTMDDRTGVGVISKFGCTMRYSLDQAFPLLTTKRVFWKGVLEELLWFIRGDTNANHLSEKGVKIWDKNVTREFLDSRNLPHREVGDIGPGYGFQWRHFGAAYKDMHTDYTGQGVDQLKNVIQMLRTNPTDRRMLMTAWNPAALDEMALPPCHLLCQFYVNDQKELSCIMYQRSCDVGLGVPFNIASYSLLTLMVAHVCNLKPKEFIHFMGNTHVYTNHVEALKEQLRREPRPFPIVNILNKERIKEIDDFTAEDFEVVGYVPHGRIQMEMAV
Description: Inhibitory activity against dihydrofolate reductase (DHFR) from Toxoplasma gondii

The subject of assay [3] is SF-295. Nature of the assay: inhibition of the growth of CNS cancer(SF-295) cell line. Format: functional. The note with it: Homo sapiens.
Assay [4] deals with RPMI-8226. Nature of the assay: inhibition of the growth of leukemia (RPMI-8226) cell line. Format: functional. The note with it: Homo sapiens.
The subject of assay [5] is UO-31. Nature of the assay: inhibition of the growth of renal cancer(UO-31) cell line. Type of assay: functional. The note with it: Homo sapiens.
The test system of assay [6] is MDA-MB-435. Nature of the assay: Inhibition of the growth of breast cancer (MDA-MB-435) cell line at 0.01 uM. The note with it: Homo sapiens. Type of assay: functional.
Assay [7] concerns IGROV-1. Kind of assay: inhibition of the growth of ovarian cancer(IGROVI) cell line. Type of assay: functional. The note with it: Homo sapiens.
In assay [8] the test system is SF-295. Nature of the assay: Inhibition of the growth of CNS cancer(SF-295) cell line at 0.01 uM. The note with it: Homo sapiens. Type of assay: functional.
Assay [9] relates to NCI-H23. Nature of the assay: inhibition of the growth of non-small-cell lung cancer (NCI-H23) cell line. Format: functional. The note with it: Homo sapiens.
Assay [10] has as its system CAKI-1. Kind of assay: inhibition of the growth of renal cancer(CAKI-1) cell line. Format: functional. The note with it: Homo sapiens.
The test system of assay [11] is NCI-H460. Kind of assay: Inhibition of the growth of non-small-cell lung cancer (NCI-H460) cell line at 0.01 uM. Format: functional. The note with it: Homo sapiens.
The subject of assay [12] is SF-539. Nature of the assay: inhibition of the growth of CNS cancer(SF-539) cell line. Format: functional. The note with it: Homo sapiens.
The test system of assay [13] is A549. Kind of assay: Inhibition of the growth of non-small-cell lung cancer (A549/ATCC) cell line at 0.01 uM. Format: functional. The note with it: Homo sapiens.
Assay [14] has as its system SF-268. Kind of assay: inhibition of the growth of CNS cancer(SF-268) cell line. Type of assay: functional. The note with it: Homo sapiens.
Assay [15] relates to SK-MEL-5. Kind of assay: inhibition of the growth of melanoma cancer (SK-MEL-5) cell line. Type of assay: functional. The note with it: Homo sapiens.
Assay [16] deals with HCT-116. Kind of assay: inhibition of the growth of colon cancer(HCT116) cell line. Format: functional. The note with it: Homo sapiens.
Assay [17] concerns M14. Nature of the assay: inhibition of the growth of melanoma cancer (M14) cell line. Type of assay: functional. The note with it: Homo sapiens.
The subject of assay [18] is RPMI-8226. Kind of assay: Inhibition of the growth of leukemia (RPMI-8226) cell line at 0.01 uM. Type of assay: functional. The note with it: Homo sapiens.
The test system of assay [19] is SK-MEL-5. Kind of assay: Inhibition of the growth of melanoma cancer (SK-MEL-5) cell line at 0.01 uM. Format: functional. The note with it: Homo sapiens.
Assay [20] concerns NCI-H322M. Nature of the assay: inhibition of the growth of non-small-cell lung cancer (NCI-H322M) cell line. The note with it: Homo sapiens. Type of assay: functional.
The test system of assay [21] is MCF7. Kind of assay: inhibition of the growth of breast cancer (MCF-7) cell line. The note with it: Homo sapiens. Type of assay: functional.
For assay [22], the system named is MDA-MB-435. Kind of assay: inhibition of the growth of breast cancer (MDA-MB-435) cell line. Type of assay: functional. The note with it: Homo sapiens.
The test system of assay [23] is SNB-19. Kind of assay: inhibition of the growth of CNS cancer(SNB-19) cell line. The note with it: Homo sapiens. Type of assay: functional.
Assay [24] relates to 786-0. Nature of the assay: inhibition of the growth of renal cancer(786-0) cell line. The note with it: Homo sapiens. Format: functional.
For assay [25], the system named is NCI/ADR-RES. Nature of the assay: Inhibition of the growth of breast cancer (MCF7/ADR-RES) cell line at 0.01 uM. Type of assay: functional. The note with it: Homo sapiens.
In assay [26] the test system is NCI/ADR-RES. Kind of assay: inhibition of the growth of breast cancer (MCF7/ADR-RES) cell line. Format: functional. The note with it: Homo sapiens.
The test system of assay [27] is NCI-H460. Kind of assay: inhibition of the growth of non-small-cell lung cancer (NCI-H460) cell line. The note with it: Homo sapiens. Format: functional.
The subject of assay [28] is OVCAR-8. Nature of the assay: Inhibition of the growth of ovarian cancer(OVCAR-8) cell line at 0.01 uM. The note with it: Homo sapiens. Type of assay: functional.
The test system of assay [29] is HCT-15. Kind of assay: inhibition of the growth of colon cancer(HCT-15) cell line. Type of assay: functional. The note with it: Homo sapiens.
Assay [30] concerns A549. Nature of the assay: inhibition of the growth of non-small-cell lung cancer (A549/ATCC) cell line. Format: functional. The note with it: Homo sapiens.
Assay [31] deals with T2, Dihydrofolate reductase (Pneumocystis carinii, UniProt P16184).
T2 sequence (P16184 whole entry): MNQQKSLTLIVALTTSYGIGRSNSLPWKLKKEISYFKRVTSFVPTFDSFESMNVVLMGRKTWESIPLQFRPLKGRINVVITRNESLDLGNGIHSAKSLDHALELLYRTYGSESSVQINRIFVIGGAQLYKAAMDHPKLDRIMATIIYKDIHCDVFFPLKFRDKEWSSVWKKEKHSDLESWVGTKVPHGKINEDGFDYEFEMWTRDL
Description: Inhibitory activity against dihydrofolate reductase (DHFR) from Pneumocystis carinii

Assay [32] deals with KM12. Kind of assay: inhibition of the growth of colon cancer(KM-12) cell line. Type of assay: functional. The note with it: Homo sapiens.
Assay [33] concerns IGROV-1. Kind of assay: Inhibition of the growth of ovarian cancer(IGROVI) cell line at 0.01 uM. Format: functional. The note with it: Homo sapiens.
The test system of assay [34] is HCT-15. Kind of assay: Inhibition of the growth of colon cancer(HCT-15) cell line at 0.01 uM. The note with it: Homo sapiens. Type of assay: functional.
Assay [35] deals with OVCAR-8. Kind of assay: inhibition of the growth of ovarian cancer(OVCAR-8) cell line. Format: functional. The note with it: Homo sapiens.
In assay [36] the test system is NCI-H522. Nature of the assay: inhibition of the growth of non-small-cell lung cancer (NCI-H522) cell line. Format: functional. The note with it: Homo sapiens.
Assay [37] concerns MOLT-4. Kind of assay: inhibition of the growth of leukemia (MOLT-4) cell line. Type of assay: functional. The note with it: Homo sapiens.
In assay [38] the test system is DU-145. Nature of the assay: inhibition of the growth of prostate cancer(DU-145) cell line. Format: functional. The note with it: Homo sapiens.
Assay [39] has as its target T3, Dihydrofolate reductase (Rattus norvegicus, UniProt Q920D2).
T3 sequence (Q920D2 whole entry): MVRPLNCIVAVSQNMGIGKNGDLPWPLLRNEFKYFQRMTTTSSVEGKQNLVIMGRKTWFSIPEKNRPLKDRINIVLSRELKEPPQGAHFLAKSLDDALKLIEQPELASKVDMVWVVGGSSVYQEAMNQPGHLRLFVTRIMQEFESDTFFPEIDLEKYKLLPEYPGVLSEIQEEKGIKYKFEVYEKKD
Description: Inhibitory activity against dihydrofolate reductase (DHFR) from rat liver

Assay [40] has as its system MDA-N. Nature of the assay: inhibition of the growth of breast cancer(MDA-N) cell line. Format: functional. The note with it: Homo sapiens.
For assay [41], the system named is SR. Kind of assay: inhibition of the growth of leukemia(SR) cell line. Format: functional. The note with it: Homo sapiens.
The subject of assay [42] is MDA-N. Nature of the assay: Inhibition of the growth of breast cancer(MDA-N) cell line at 0.01 uM. Format: functional. The note with it: Homo sapiens.

9 compounds from ChEMBL document CHEMBL1131172 (J Med Chem, 1998) can be followed below.

Each structure is given as a SMILES string.

In the case of `CN(c1ccccc1)c1ccc2nc(N)nc(N)c2n1`, the inhibition at 0.01 µM in [1] came out at 80%; in assay [6], 73%; in assay [8] it was 59%; in [11], 80%; in assay [13], 65%; in [18] it was 59%. Moreover, the inhibition at 0.01 µM in assay [19] amounted to 59%; in [25] it was 83%; in [28] it was 91%; in assay [33], 53%; in assay [34], 66%; in assay [42], 68%. Further, the IC50 in assay [2] was 2.2 nM; in assay [31], 99.5 nM; in [39], 1.3 nM. In addition, the GI50 in assay [3] is less than 10 nM; in assay [4], less than 10 nM; in assay [5], 30 nM; in assay [7], less than 10 nM; in [9], 30 nM; in [10], 10 nM. Besides, the GI50 in assay [12] was less than 10 nM; in assay [14], 10 nM; in assay [15], less than 10 nM; in assay [16], less than 10 nM; in [17] it was 10 nM; in [20], 70 nM. The GI50 in assay [21] is 140 nM; in assay [22], less than 10 nM; in assay [23], 40 nM; in [24] it was 220 nM; in assay [26], less than 10 nM; in [27], less than 10 nM. In addition, the GI50 is less than 10 nM in [29]; less than 10 nM in [30]; 190 nM in assay [32]; less than 10 nM in [35]; 60 nM in assay [36]; 60 nM in [37]. The values for the GI50 in [38], in [40] and in [41] were 120 nM, less than 10 nM and 50 nM, respectively.

On to `COc1ccc(Nc2ccc3nc(N)nc(N)c3n2)cc1`, for which the IC50 in [2] was found to be 2800 nM; in assay [31] it was 90400 nM; in assay [39] it was 3800 nM.

Turning to `COc1ccc(OC)c(Nc2ccc3nc(N)nc(N)c3n2)c1`, the 50% inhibitory concentration (IC50) was 730 nM in assay [2] and 3600 nM in assay [39].

With `COc1ccc(Nc2ccc3nc(N)nc(N)c3n2)cc1OC`, the IC50 in [2] amounted to 680 nM; in assay [31], 40400 nM; in [39], 1100 nM.

Consider `COc1cc(CNc2ccc3nc(N)nc(N)c3n2)cc(OC)c1OC`, for which the values for the IC50 in assay [2] and in [39] were 490 nM and 1400 nM, respectively.

Turning to `COc1ccccc1Sc1ccc2nc(N)nc(N)c2n1`, the IC50 in [2] was 58 nM; in assay [31], 2200 nM; in assay [39] it was 230 nM.

On to `CN(c1ccc2nc(N)nc(N)c2n1)c1cccc2ccccc12`, for which the IC50 is 2100 nM in [2] and 3300 nM in assay [39].

For the compound `COc1ccccc1S(=O)(=O)c1ccc2nc(N)nc(N)c2n1`, the half-maximal inhibitory concentration (IC50) turned out to be 210 nM in assay [2], 3200 nM in [31] and 1400 nM in assay [39].

Regarding `COc1ccc(S(=O)(=O)c2ccc3nc(N)nc(N)c3n2)cc1`, the figures for the IC50 in [2] and in assay [39] were 1000 nM and 2000 nM, respectively.
